In test [1] the test system is Saccharomyces cerevisiae. The experiment in a line: DNA damaging activity against RS322 YK rad52 DNA repair gene deficient Saccharomyces cerevisiae mutant assessed as drug level required to produce 12 mm zone of inhibition after 48 hrs. It is filed as functional.
Test [2] concerns Saccharomyces cerevisiae. In words: DNA damaging activity against RS167 N rad6 DNA repair gene deficient Saccharomyces cerevisiae mutant assessed as drug level required to produce 12 mm zone of inhibition after 48 hrs. It is filed as functional.
The test system of a further test is P388. The experiment in a line: Cytotoxicity against mouse P388 cells. It is filed as functional, cell-based.
Test [3] deals with CHO. The experiment in a line: Cytotoxicity against p-glycoprotein overexpressing CHO cells. It is filed as cell-based. The note with it: Cricetulus griseus.
Test [4] deals with Saccharomyces cerevisiae. In words: DNA damaging activity against RS188N rad DNA repair gene expressing Saccharomyces cerevisiae assessed as drug level required to produce 12 mm zone of inhibition after 48 hrs. It is filed as functional.
Test [5] has as its system Saccharomyces cerevisiae. The experiment in a line: DNA damaging activity against RS321 […] DNA repair gene deficient Saccharomyces cerevisiae mutant assessed as drug level required to produce 12 mm zone of inhibition after 48 hrs. It is filed as functional.
In test [6] the test system is CHO. The experiment in a line: Cytotoxicity against CHO cells. It is filed as cell-based. The note with it: Cricetulus griseus.

pIC50: −log10 of the molar value. Where only a bound is given, the exact number is not on record here.

One may read the pIC50 as −log10 of the IC50, conventionally taken in molar units. Higher therefore signals a low IC50. With `COc1ccc2c(c1CC=C(C)C)O[C@H]1c3ccc(O)cc3OC[C@@]21O` [ERYTHRABYSSIN I], the IC12 with Saccharomyces cerevisiae [1] worked out at 80 µg/mL; in the test with Saccharomyces cerevisiae [2], 540 µg/mL; in the test on Saccharomyces cerevisiae [4], 330 µg/mL; in the test with Saccharomyces cerevisiae [5], 108 µg/mL. Also, the pIC50 in the test with P388 is under 5.00; in the test on CHO [3] it was 5.40; in the test on CHO [6], under 4.70.

Take `CC(C)=CCc1c(O)ccc2c1O[C@H]1c3ccc(O)cc3OC[C@@H]21` [PHASEOLLIDIN]: the IC12 in the test on Saccharomyces cerevisiae [1] is 500 µg/mL; with Saccharomyces cerevisiae [2] it was over 1000 µg/mL; in the test with Saccharomyces cerevisiae [4], 5500 µg/mL; in the test with Saccharomyces cerevisiae [5] it was 400 µg/mL. For the same compound, the pIC50 in the test on P388 was under 5.00; with CHO [3] it was 5.12; in the test with CHO [6], 5.40.

(Values after ChEMBL document CHEMBL1147389, “Two bioactive pterocarpans from Erythrina burana” (J Nat Prod, 1993).)
